Measurements reported in patent US20260193268A1, “TRICYCLIC PI3Ka INHIBITOR, PREPARATION METHOD THEREFOR, AND PHARMACEUTICAL USE THEREOF” (WIGEN BIOMEDICINE TECHNOLOGY (SHANGHAI) CO., LTD., priority 2022, published 2026).
Read-outs that look alike come from different tables or passages of the source.

How the values were obtained:
[1] = test system: HCC1954 cells (with PI3Kα H1047R mutation); test: In vitro inhibition of HCC1954 cell proliferation (CellTiter-Lumi); assay type: cell-based
Procedure: Assay for In Vitro Inhibition of HCC1954 Cell Proliferation by Compounds of the Present Disclosure
The growth of the cells was evaluated, and the IC50 for the inhibition of cell growth by the compounds was calculated.

[2] = test system: MCF-7 cells (with PI3Kα E545K mutation); test: In vitro inhibition of MCF-7 cell proliferation (CellTiter-Lumi); assay type: cell-based
Method in brief: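 MCF-7 (PI3Kα E545K) seeded at 2000 cells/well; serially diluted compounds added next day and exposed for 144 h. Cellular ATP read by CellTiter-Lumi luminescence; IC50 for growth inhibition calculated.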

[3] = Homo sapiens, HCC1954, 144 h, HCC1954 cells, 144 h, CellTiter-Lumi, class symbols, read-out: Inhibitory activity against HCC1954 cells (IC50), class symbols
[4] = Homo sapiens, MCF7, 144 h, class symbols, read-out: Inhibitory activity against MCF-7 cells (IC50), class symbols
[5] = HCC1954 cells, 144 h, CellTiter-Lumi, numeric values, read-out: Inhibitory activity against HCC1954 cells (IC50)
[6] = 144 h, numeric values, read-out: Inhibitory activity against MCF-7 cells (IC50)
[7] = Homo sapiens, HCC1954, 144 h, read-out: Inhibitory activity against HCC1954 cells (IC50), class symbols

Compound | IC50 [1, 3] [nM] | IC50 [2, 4] [nM] | IC50 [1, 5] [nM] | IC50 [2, 6] [nM] | IC50 [1, 7] [nM]
CC(C)(C=C(C#N)C(=O)Nc1ccc(N2CC(N3CCN(c4ccc5c(c4)-c4nc(N6C(=O)OC[C@H]6C(F)F)cn4CCO5)CC3)C2)cc1)NC(=O)OC(C)(C)C [Compound 324A] |  |  | 0.1 | 0.1 | 
CC(C)(C=C(C#N)C(=O)Nc1ccc(N2CC(N3CCN(c4ccc5c(c4)-c4nc(N6C(=O)OC[C@H]6C(F)F)cn4CCO5)CC3)C2)cc1)NC(=O)OC(C)(C)C [Compound 324B] |  |  | 6.2 | 2.6 | 
CC(=O)NC(C)(C)C=C(C#N)C(=O)Nc1ccc(N2CC(N3CCN(c4ccc5c(c4)-c4nc(N6C(=O)OC[C@H]6C(F)F)cn4CCO5)CC3)C2)cc1 [Compound 325] | < 50 | < 50 |  |  | 
CC(C)(C)OC(=O)NC1(C=C(C#N)C(=O)Nc2ccc(N3CC(N4CCN(c5ccc6c(c5)-c5nc(N7C(=O)OC[C@H]7C(F)F)cn5CCO6)CC4)C3)cc2)CC1 [Compound 326] | < 50 | < 50 |  |  | 
CC(C)(C=C(C#N)C(=O)Nc1ccc(N2CC(N3CCN(c4ccc5c(c4)-c4nc(N6C(=O)OC[C@H]6C(F)F)cn4CCO5)CC3)C2)cc1)NS(C)(=O)=O [Compound 327] | < 50 | < 50 |  |  | 
CC(=O)OCNC(C)(C)C=C(C#N)C(=O)Nc1ccc(N2CC(N3CCN(c4ccc5c(c4)-c4nc(N6C(=O)OC[C@H]6C(F)F)cn4CCO5)CC3)C2)cc1 [Compound 328] | < 50 | < 50 |  |  | 
CC(C)(C=C(C#N)C(=O)Nc1ccc(N2CC(N3CCN(c4ccc5c(c4)-c4nc(N6C(=O)OC[C@H]6C(F)F)cn4CCO5)CC3)C2)cc1)NCOC(=O)C(C)(C)C [Compound 329] | < 50 | < 50 |  |  | 
CCOP(=O)(OCC)OCNC(C)(C)C=C(C#N)C(=O)Nc1ccc(N2CC(N3CCN(c4ccc5c(c4)-c4nc(N6C(=O)OC[C@H]6C(F)F)cn4CCO5)CC3)C2)cc1 [Compound 331] |  | < 50 |  |  | < 50
CCOP(=O)(NC(C)(C)C=C(C#N)C(=O)Nc1ccc(N2CC(N3CCN(c4ccc5c(c4)-c4nc(N6C(=O)OC[C@H]6C(F)F)cn4CCO5)CC3)C2)cc1)OCC [Compound 332] |  | < 50 |  |  | < 50
CC(C)(C=C(C#N)C(=O)Nc1ccc(N2CC(N3CCN(c4ccc5c(c4)-c4nc(N6C(=O)OC[C@H]6C(F)F)cn4CCO5)CC3)C2)cc1)NCOP(=O)(OCOC(=O)C(C)(C)C)OCOC(=O)C(C)(C)C [Compound 333] | < 50 | < 50 |  |  | 
CC(C)OC(=O)OCOP(=O)(OCNC(C)(C)C=C(C#N)C(=O)Nc1ccc(N2CC(N3CCN(c4ccc5c(c4)-c4nc(N6C(=O)OC[C@H]6C(F)F)cn4CCO5)CC3)C2)cc1)OCOC(=O)OC(C)C [Compound 334] | < 50 | < 50 |  |  | 
CN(C(=O)OC(C)(C)C)C(C)(C)C=C(C#N)C(=O)Nc1ccc(N2CC(N3CCN(c4ccc5c(c4)-c4nc(N6C(=O)OC[C@H]6C(F)F)cn4CCO5)CC3)C2)cc1 [Compound 335] | < 50 | < 50 |  |  | 
Cc1nc(-c2cn3c(n2)-c2cc(N4CCN(C5CN(c6ccc(NC(=O)C(C#N)=CC(C)(C)N)cc6)C5)CC4)ccc2OCC3)n(C(C)C)n1 [Compound 336] | < 50 | < 50 |  |  | 
CNC(C)(C)C=C(C#N)C(=O)Nc1ccc(N2CC(N3CCN(c4ccc5c(c4)-c4nc(-c6nc(C)nn6C(C)C)cn4CCO5)CC3)C2)cc1 [Compound 337] | < 50 | < 50 |  |  | 
Cc1nc(-c2cn3c(n2)-c2cc(N4CCN(C5CN(c6ccc(NC(=O)C(C#N)=CC(C)(C)NC(=O)OC(C)(C)C)cc6)C5)CC4)ccc2OCC3)n(C(C)C)n1 [Compound 338] | < 50 | < 50 |  |  | 
Cc1nc(-c2cn3c(n2)-c2cc(N4CCN(C5CN(c6ccc(NC(=O)C(C#N)=CC(C)(C)N(C)C7COC7)cc6)C5)CC4)ccc2OCC3)n(C(C)C)n1 [Compound 339] | < 50 | < 50 |  |  | 
Cc1nc(-c2cn3c(n2)-c2cc(N4CCN(C5CN(c6ccc(NC(=O)C(C#N)=CC(C)(C)C)cc6)C5)CC4)ccc2OCC3)n(C(C)C)n1 [Compound 340] | < 50 | < 50 |  |  | 
CCOP(=O)(OCC)OCOC(C)(C)C=C(C#N)C(=O)Nc1ccc(N2CC(N3CCN(c4ccc5c(c4)-c4nc(N6C(=O)OC[C@H]6C(F)F)cn4CCO5)CC3)C2)cc1 [Compound 341] |  | < 50 |  |  | < 50
CCOP(=O)(OCC)OC(C)(C)C=C(C#N)C(=O)Nc1ccc(N2CC(N3CCN(c4ccc5c(c4)-c4nc(N6C(=O)OC[C@H]6C(F)F)cn4CCO5)CC3)C2)cc1 [Compound 342] |  | < 50 |  |  | < 50
CC(C)(C=C(C#N)C(=O)Nc1ccc(N2CC(N3CCN(c4ccc5c(c4)-c4nc(N6C(=O)OC[C@H]6C(F)F)cn4CCO5)CC3)C2)cc1)OCOP(=O)(OCOC(=O)C(C)(C)C)OCOC(=O)C(C)(C)C [Compound 343] | < 50 | < 50 |  |  | 
CC(C)OC(=O)OCOP(=O)(OCOC(=O)OC(C)C)OCOC(C)(C)C=C(C#N)C(=O)Nc1ccc(N2CC(N3CCN(c4ccc5c(c4)-c4nc(N6C(=O)OC[C@H]6C(F)F)cn4CCO5)CC3)C2)cc1 [Compound 344] | < 50 | < 50 |  |  | 
CC(C)(C=C(C#N)C(=O)Nc1ccc(N2CC(N3CCN(c4ccc5c(c4)-c4nc(N6C(=O)OC[C@H]6C(F)F)cn4CCO5)CC3)C2)c(F)c1)NC(=O)OC(C)(C)C [Compound 345] | < 50 | < 50 |  |  | 
CC(=O)NC(C)(C)C=C(C#N)C(=O)Nc1ccc(N2CC(N3CCN(c4ccc5c(c4)-c4nc(N6C(=O)OC[C@H]6C(F)F)cn4CCO5)CC3)C2)c(F)c1 [Compound 347] | < 50 | < 50 |  |  | 

The next lines start with results.

IC50 [1, 3] [nM] | IC50 [2, 4] [nM] | IC50 [1, 5] [nM] | IC50 [2, 6] [nM] | Compound | IC50 [1, 7] [nM]
< 50 | < 50 |  |  | CN1CCN(C(C)(C)C=C(C#N)C(=O)Nc2ccc(N3CC(N4CCN(c5ccc6c(c5)-c5nc(N7C(=O)OC[C@H]7C(F)F)cn5CCO6)CC4)C3)cc2)CC1 [Compound 307] | 
< 50 | < 50 |  |  | CN1CCN(C(C)(C)C=C(C#N)C(=O)Nc2ccc(N3CC(N4CCN(c5ccc6c(c5)-c5nc(N7C(=O)OC[C@H]7C(F)F)cn5CCO6)CC4)C3)cc2)CC1=O [Compound 308] | 
< 50 | < 50 |  |  | CC1CN(C(C)(C)C=C(C#N)C(=O)Nc2ccc(N3CC(N4CCN(c5ccc6c(c5)-c5nc(N7C(=O)OC[C@H]7C(F)F)cn5CCO6)CC4)C3)cc2)CC(C)N1 (some centres unmarked) [Compound 309] | 
< 50 | < 50 |  |  | CC(=O)N1CCN(C(C)(C)C=C(C#N)C(=O)Nc2ccc(N3CC(N4CCN(c5ccc6c(c5)-c5nc(N7C(=O)OC[C@H]7C(F)F)cn5CCO6)CC4)C3)cc2)CC1 [Compound 310] | 
< 50 | < 50 |  |  | COC(=O)N1CCN(C(C)(C)C=C(C#N)C(=O)Nc2ccc(N3CC(N4CCN(c5ccc6c(c5)-c5nc(N7C(=O)OC[C@H]7C(F)F)cn5CCO6)CC4)C3)cc2)CC1 [Compound 311] | 
< 50 | < 50 |  |  | CC(C)(C=C(C#N)C(=O)Nc1ccc(N2CC(N3CCN(c4ccc5c(c4)-c4nc(N6C(=O)OC[C@H]6C(F)F)cn4CCO5)CC3)C2)cc1)N1CCC2(CC1)COC2 [Compound 312] | 
< 50 | < 50 |  |  | CC(C)(C=C(C#N)C(=O)Nc1ccc(N2CC(N3CCN(c4ccc5c(c4)-c4nc(N6C(=O)OC[C@H]6C(F)F)cn4CCO5)CC3)C2)cc1)N1CC2(CCOCC2)C1 [Compound 313] | 
< 50 | < 50 |  |  | CC(C)(C=C(C#N)C(=O)Nc1ccc(N2CC(N3CCN(c4ccc5c(c4)-c4nc(N6C(=O)OC[C@H]6C(F)F)cn4CCO5)CC3)C2)cc1)N1CC(C2COC2)C1 [Compound 314] | 
< 50 | < 50 |  |  | CC(C)(C)C=C(C#N)C(=O)Nc1ccc(N2CC(N3CCN(c4cc5c(cc4F)OCCn4cc(N6C(=O)OC[C@H]6C(F)F)nc4-5)CC3)C2)cc1 [Compound 315] | 
< 50 | < 50 |  |  | CC(C)(C)C=C(C#N)C(=O)Nc1ccc(N2CC(N3CCN(c4cc(F)c5c(c4)-c4nc(N6C(=O)OC[C@H]6C(F)F)cn4CCO5)CC3)C2)cc1 [Compound 316] | 
< 50 | < 50 |  |  | CC(C)(C)C=C(C#N)C(=O)Nc1ccc(N2CC(N3CCN(c4cc5c(cc4O)OCCn4cc(N6C(=O)OC[C@H]6C(F)F)nc4-5)CC3)C2)cc1 [Compound 317] | 
< 50 | < 50 |  |  | COc1cc2c(cc1N1CCN(C3CN(c4ccc(NC(=O)C(C#N)=CC(C)(C)C)cc4)C3)CC1)-c1nc(N3C(=O)OC[C@H]3C(F)F)cn1CCO2 [Compound 318] | 
< 50 | < 50 |  |  | CNc1cc2c(cc1N1CCN(C3CN(c4ccc(NC(=O)C(C#N)=CC(C)(C)C)cc4)C3)CC1)-c1nc(N3C(=O)OC[C@H]3C(F)F)cn1CCO2 [Compound 319] | 
< 50 | < 50 |  |  | Cc1cc2c(cc1N1CCN(C3CN(c4ccc(NC(=O)C(C#N)=CC(C)(C)C)cc4)C3)CC1)-c1nc(N3C(=O)OC[C@H]3C(F)F)cn1CCO2 [Compound 320] | 
< 50 | < 50 |  |  | CC(C)(C)C=C(C#N)C(=O)Nc1ccc(N2CC(N3CCN(c4ccc5c(c4)-c4nc(N6C(=O)OC[C@H]6C(F)F)c(F)n4CCO5)CC3)C2)cc1 [Compound 321] | 
< 50 | < 50 |  |  | CC(C)(C)C=C(C#N)C(=O)Nc1ccc(N2CC(N3CCN(c4ccc5c(c4)-c4nc(N6C(=O)OC[C@H]6C(F)F)c(C6CC6)n4CCO5)CC3)C2)cc1 [Compound 322] | 
< 50 | < 50 |  |  | Cc1c(N2C(=O)OC[C@H]2C(F)F)nc2n1CCOc1ccc(N3CCN(C4CN(c5ccc(NC(=O)C(C#N)=CC(C)(C)C)cc5)C4)CC3)cc1-2 [Compound 323] | 
